Consider twelve molecules from patent US9533977B2, “Oxazolidinone derivative as CETP inhibitor, its preparation method, and pharmaceutical composition comprising the same” (DONG-A ST CO., LTD., priority 2013, dated 2017).

This assay addresses T1, CETP (Homo sapiens, UniProt P11597).
T1 construct: from tissue; host or cells: human plasma from healthy men
T1 sequence (P11597 18-493): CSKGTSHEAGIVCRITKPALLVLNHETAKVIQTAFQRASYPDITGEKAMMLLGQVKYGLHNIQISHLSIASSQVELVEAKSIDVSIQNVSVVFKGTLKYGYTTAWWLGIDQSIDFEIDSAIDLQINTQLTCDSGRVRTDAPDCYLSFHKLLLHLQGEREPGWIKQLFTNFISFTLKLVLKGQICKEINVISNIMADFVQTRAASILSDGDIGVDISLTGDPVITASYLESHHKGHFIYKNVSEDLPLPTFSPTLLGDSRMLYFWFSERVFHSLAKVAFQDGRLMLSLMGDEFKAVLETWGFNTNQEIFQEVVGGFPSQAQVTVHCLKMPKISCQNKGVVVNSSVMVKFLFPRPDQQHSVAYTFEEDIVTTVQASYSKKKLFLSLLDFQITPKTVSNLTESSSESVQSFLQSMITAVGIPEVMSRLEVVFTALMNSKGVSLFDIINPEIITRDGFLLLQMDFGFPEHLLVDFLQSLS
Put plainly: Inhibitory activity against CETP in human plasma (Roar CETP activity kit, fluorescence). The assay is classed as biochemical. Particulars: plasma from healthy men diluted 1:10 in assay buffer, 37° C., 3 hrs, fluorescence 465/535 nm; read-out: IC50, Inhibition of CETP Activity in Human Plasma. The procedure, abridged:
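Healthy male human plasma, diluted 1:10, incubated 3 hrs at 37° C with donor/acceptor fluorescent substrates and compound (0.01–10000 nM, DMSO). Fluorescence at ex 465/em 535 nm, background-corrected against no-plasma and no-compound wells; IC50 from sigmoidal fit.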

The IC50 is the concentration that gives 50% inhibition. With `CCN(c1ncc(N2CCCC2C(F)(F)F)cc1CN1C(=O)O[C@H](c2cc(C(F)(F)F)cc(C(F)(F)F)c2)[C@@H]1C)C1CCCCC1` (stereo partly drawn) [Example 92, (4S,5R)-5-[3,5-bis(trifluoromethyl)phenyl]-4-methyl-3-({[2-(ethyl)(cyclohexyl)amino]-5-(2-(trifluoromethyl)-pyrrolidin-1-yl)pyridin-3-yl}methyl)-oxazolidin-2-one], the IC50 turned out to be 48 nM. The value for `CCN(c1ncc(C(F)(F)F)cc1CN1C(=O)O[C@H](c2cc(C(F)(F)F)cc(C(F)(F)F)c2)[C@@H]1C)C1CCN(C(=O)OC)CC1` [Example 35, methyl 4-{[3-({(4S,5R)-5-[3,5-bis(trifluoromethyl)phenyl]-4-methyl-2-oxo-oxazolidin-3-yl}methyl)-5-(trifluoromethyl)pyridin-2-yl](ethyl)amino}piperidine-1-carboxylate] was 20 nM. As for `CCN(c1ncc(-c2c(C)nn(C)c2C)cc1CN1C(=O)O[C@H](c2cc(C(F)(F)F)cc(C(F)(F)F)c2)[C@@H]1C)C1CCCCC1` [Example 64, (4S,5R)-5-[3,5-bis(trifluoromethyl)phenyl]-3-({[2-(ethyl)(cyclohexyl)amino]-5-(1,3,5-trimethyl-1H-pyrazol-4-yl}pyridin-3-yl}methyl)-oxazolidin-2-one], the IC50 was determined as 29.3 nM. The result for `CCN(C[C@H]1CC[C@H](CC(=O)O)CC1)c1ncc(-c2cscn2)nc1CN1C(=O)OC(c2cc(C(F)(F)F)cc(C(F)(F)F)c2)[C@@H]1C` (stereo partly drawn) [Example 113] reads 16 nM. The value for `CCN(C[C@H]1CC[C@H](CC(=O)O)CC1)c1ncc(-c2cn(C)nc2C)nc1CN1C(=O)OC(c2cc(C(F)(F)F)cc(C(F)(F)F)c2)[C@@H]1C` (stereo partly drawn) [Example 108] was 45.9 nM; that for `CCN(C[C@H]1CC[C@H](CC(=O)O)CC1)c1ncc(-c2cncc(F)c2)nc1CN1C(=O)OC(c2cc(C(F)(F)F)cc(C(F)(F)F)c2)[C@@H]1C` (stereo partly drawn) [Example 120] was 24.8 nM. As for “(4S,5R)-5-[3,5-bis(trifluoromethyl)phenyl]-4-methyl-3-({2-[(3R,4R)-4-ethoxytetrahydrofuran-3-yl)(methyl)amino]-5-(trifluoromethyl)pyridin-3-yl}methyl)-oxazolidin-2-one [Example 3]”, the IC50 came out at 194 nM.

As to `CCN(c1ncc(-c2cscc2C)cc1CN1C(=O)O[C@H](c2cc(C(F)(F)F)cc(C(F)(F)F)c2)[C@@H]1C)C1CCCCC1` [Example 86, (4S,5R)-5-[3,5-bis(trifluoromethyl)phenyl]-4-methyl-3-({[2-(ethyl)(cyclohexyl)amino]-5-(3-methyl-thiophen-4-yl)pyridin-3-yl}methyl)-oxazolidin-2-one], the IC50 turned out to be 30.4 nM. Consider `CCN(c1ncc(-c2cnn(C)c2)cc1CN1C(=O)O[C@H](c2cc(C(F)(F)F)cc(C(F)(F)F)c2)[C@@H]1C)C1CCCCC1` [Example 62, (4S,5R)-5-[3,5-bis(trifluoromethyl)phenyl]-4-methyl-3-({[2-(ethyl)(cyclohexyl)amino]-5-(1-methyl-1H-pyrazol-4-yl)pyridin-3-yl}methyl)-oxazolidin-2-one], for which the IC50 turned out to be 151 nM.

For `CCN(c1ncc(C(F)(F)F)cc1CN1C(=O)O[C@H](c2cc(C(F)(F)F)cc(C(F)(F)F)c2)[C@@H]1C)C1CCSCC1` [Example 25, (4S,5R)-5-[3,5-bis(trifluoromethyl)phenyl]-4-methyl-3-({[2-(ethyl)(tetrahydro-2H-thiopyran-4-yl)amino]-5-(trifluoromethyl)pyridin-3-yl}methyl)-oxazolidin-2-one], the IC50 is 108 nM.

Take `CCN(C[C@H]1CC[C@H](CC(=O)O)CC1)c1ncc(-c2ccccc2)nc1CN1C(=O)OC(c2cc(C(F)(F)F)cc(C(F)(F)F)c2)[C@@H]1C` (stereo partly drawn) [Example 116]: the IC50 came out at 6.29 nM. In the case of `CCNC1CCC(N(CC)c2ncc(C(F)(F)F)cc2CN2C(=O)O[C@H](c3cc(C(F)(F)F)cc(C(F)(F)F)c3)[C@@H]2C)CC1` (stereo partly drawn) [Example 23, (4S,5R)-5-[3,5-bis(trifluoromethyl)phenyl]-4-methyl-3-({[2-(ethyl)(4-ethylaminocyclohexyl)amino]-5-(trifluoromethyl)pyridin-3-yl}methyl)-oxazolidin-2-one], the IC50 was determined as 44.4 nM.
